Data taken from publication PMC10838953.

How the values were obtained:
RIOK1 = RIOK1 (Homo sapiens, UniProt Q9BRS2); assay: biochemical; conditions: read-out: %Ctrl @ 2000nM
CDK4-cyclinD1 = CDK4-cyclinD1 (Homo sapiens, UniProt P11802); assay: biochemical; conditions: read-out: %Ctrl @ 2000nM
VPS34 = VPS34 (Homo sapiens, UniProt Q8NEB9); assay: biochemical; conditions: read-out: %Ctrl @ 2000nM
SGK = SGK (Homo sapiens, UniProt O00141); assay: biochemical; conditions: read-out: %Ctrl @ 2000nM
AXL = AXL (Homo sapiens, UniProt P30530); assay: biochemical; conditions: read-out: %Ctrl @ 2000nM
GRK4 = GRK4 (Homo sapiens, UniProt P32298); assay: biochemical; conditions: read-out: %Ctrl @ 2000nM
p21 (T145) = conditions: HEK293 cells; 48 h
MEK4 = MEK4 (Homo sapiens, UniProt P45985); assay: biochemical; conditions: read-out: %Ctrl @ 2000nM
SRC = SRC (Homo sapiens, UniProt P12931); assay: biochemical; conditions: read-out: %Ctrl @ 2000nM
PARP = conditions: 786-O cells; 2.5-15 μM; 48 h
RET(V804M) = RET(V804M) (Homo sapiens, UniProt P07949, V804M); assay: biochemical; conditions: read-out: %Ctrl @ 2000nM
ERBB2 = ERBB2 (Homo sapiens, UniProt P04626); assay: biochemical; conditions: read-out: %Ctrl @ 2000nM
MARK4 = MARK4 (Homo sapiens, UniProt Q96L34); assay: biochemical; conditions: read-out: %Ctrl @ 2000nM
S6K1 = S6K1 (Homo sapiens, UniProt P23443); assay: biochemical; conditions: read-out: %Ctrl @ 2000nM
RIPK4 = RIPK4 (Homo sapiens, UniProt P57078); assay: biochemical; conditions: read-out: %Ctrl @ 2000nM
BMPR2 = BMPR2 (Homo sapiens, UniProt Q13873); assay: biochemical; conditions: read-out: %Ctrl @ 2000nM
PRKG1 = PRKG1 (Homo sapiens, UniProt Q13976); assay: biochemical; conditions: read-out: %Ctrl @ 2000nM
ULK1 = ULK1 (Homo sapiens, UniProt O75385); assay: biochemical; conditions: read-out: %Ctrl @ 2000nM
CK2 in HEK293 cells = conditions: read-out: IC50 CK2 activity in cell extracts
TESK1 = TESK1 (Homo sapiens, UniProt Q15569); assay: biochemical; conditions: read-out: %Ctrl @ 2000nM
SGK2 = SGK2 (Homo sapiens, UniProt Q9HBY8); assay: biochemical; conditions: read-out: %Ctrl @ 2000nM
MLK1 = MLK1 (Homo sapiens, UniProt P80192); assay: biochemical; conditions: read-out: %Ctrl @ 2000nM
CHEK1 = CHEK1 (Homo sapiens, UniProt O14757); assay: biochemical; conditions: read-out: %Ctrl @ 2000nM
PLK1 = PLK1 (Homo sapiens, UniProt P53350); assay: biochemical; conditions: read-out: %Ctrl @ 2000nM
STAT3 (S727) = conditions: 786-O cells; 48 h
GRK7 = GRK7 (Homo sapiens, UniProt Q8WTQ7); assay: biochemical; conditions: read-out: %Ctrl @ 2000nM
PIM2 = PIM2 (Homo sapiens, UniProt Q9P1W9); assay: biochemical; conditions: read-out: %Ctrl @ 2000nM
[1] = molecular target: ABL1(T315I)-phosphorylated (Homo sapiens, UniProt P00519, T315I); assay: biochemical; conditions: read-out: %Ctrl @ 2000nM
IRAK4 = IRAK4 (Homo sapiens, UniProt Q9NWZ3); assay: biochemical; conditions: read-out: %Ctrl @ 2000nM
INSRR = INSRR (Homo sapiens, UniProt P14616); assay: biochemical; conditions: read-out: %Ctrl @ 2000nM
MKK7 = MKK7 (Homo sapiens, UniProt O14733); assay: biochemical; conditions: read-out: %Ctrl @ 2000nM
YANK2 = YANK2 (Homo sapiens, UniProt Q9NY57); assay: biochemical; conditions: read-out: %Ctrl @ 2000nM
ACVR2B = ACVR2B (Homo sapiens, UniProt Q13705); assay: biochemical; conditions: read-out: %Ctrl @ 2000nM
IRAK3 = IRAK3 (Homo sapiens, UniProt Q9Y616); assay: biochemical; conditions: read-out: %Ctrl @ 2000nM
CDK4 = CDK4 (Homo sapiens, UniProt P11802); assay: biochemical; conditions: read-out: %Ctrl @ 2000nM
PYK2 = PYK2 (Homo sapiens, UniProt Q14289); assay: biochemical; conditions: read-out: %Ctrl @ 2000nM
PCTK2 = PCTK2 (Homo sapiens, UniProt Q00537); assay: biochemical; conditions: read-out: %Ctrl @ 2000nM
LYN = LYN (Homo sapiens, UniProt P07948); assay: biochemical; conditions: read-out: %Ctrl @ 2000nM
TYRO3 = TYRO3 (Homo sapiens, UniProt Q06418); assay: biochemical; conditions: read-out: %Ctrl @ 2000nM
PRKCE = PRKCE (Homo sapiens, UniProt Q02156); assay: biochemical; conditions: read-out: %Ctrl @ 2000nM
[2] = molecular target: RSK2(Kin.Dom.2-C-terminal) (Homo sapiens, UniProt P51812); assay: biochemical; conditions: read-out: %Ctrl @ 2000nM
PIK3C2B = PIK3C2B (Homo sapiens, UniProt O00750); assay: biochemical; conditions: read-out: %Ctrl @ 2000nM
AURKC = AURKC (Homo sapiens, UniProt Q9UQB9); assay: biochemical; conditions: read-out: %Ctrl @ 2000nM

SGK, sequence (O00141 whole entry): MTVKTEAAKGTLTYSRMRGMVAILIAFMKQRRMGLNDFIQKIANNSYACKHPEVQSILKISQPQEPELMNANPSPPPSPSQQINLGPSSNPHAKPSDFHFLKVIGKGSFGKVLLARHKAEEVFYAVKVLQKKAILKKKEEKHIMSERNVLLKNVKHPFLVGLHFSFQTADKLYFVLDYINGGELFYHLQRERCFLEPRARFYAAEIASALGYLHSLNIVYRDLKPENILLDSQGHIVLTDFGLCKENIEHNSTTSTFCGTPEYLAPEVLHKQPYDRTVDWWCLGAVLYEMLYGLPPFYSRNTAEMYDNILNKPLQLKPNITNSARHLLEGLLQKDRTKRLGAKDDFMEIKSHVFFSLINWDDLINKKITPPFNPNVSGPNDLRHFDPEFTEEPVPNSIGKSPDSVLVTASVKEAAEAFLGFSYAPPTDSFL
PYK2, sequence (Q14289 whole entry): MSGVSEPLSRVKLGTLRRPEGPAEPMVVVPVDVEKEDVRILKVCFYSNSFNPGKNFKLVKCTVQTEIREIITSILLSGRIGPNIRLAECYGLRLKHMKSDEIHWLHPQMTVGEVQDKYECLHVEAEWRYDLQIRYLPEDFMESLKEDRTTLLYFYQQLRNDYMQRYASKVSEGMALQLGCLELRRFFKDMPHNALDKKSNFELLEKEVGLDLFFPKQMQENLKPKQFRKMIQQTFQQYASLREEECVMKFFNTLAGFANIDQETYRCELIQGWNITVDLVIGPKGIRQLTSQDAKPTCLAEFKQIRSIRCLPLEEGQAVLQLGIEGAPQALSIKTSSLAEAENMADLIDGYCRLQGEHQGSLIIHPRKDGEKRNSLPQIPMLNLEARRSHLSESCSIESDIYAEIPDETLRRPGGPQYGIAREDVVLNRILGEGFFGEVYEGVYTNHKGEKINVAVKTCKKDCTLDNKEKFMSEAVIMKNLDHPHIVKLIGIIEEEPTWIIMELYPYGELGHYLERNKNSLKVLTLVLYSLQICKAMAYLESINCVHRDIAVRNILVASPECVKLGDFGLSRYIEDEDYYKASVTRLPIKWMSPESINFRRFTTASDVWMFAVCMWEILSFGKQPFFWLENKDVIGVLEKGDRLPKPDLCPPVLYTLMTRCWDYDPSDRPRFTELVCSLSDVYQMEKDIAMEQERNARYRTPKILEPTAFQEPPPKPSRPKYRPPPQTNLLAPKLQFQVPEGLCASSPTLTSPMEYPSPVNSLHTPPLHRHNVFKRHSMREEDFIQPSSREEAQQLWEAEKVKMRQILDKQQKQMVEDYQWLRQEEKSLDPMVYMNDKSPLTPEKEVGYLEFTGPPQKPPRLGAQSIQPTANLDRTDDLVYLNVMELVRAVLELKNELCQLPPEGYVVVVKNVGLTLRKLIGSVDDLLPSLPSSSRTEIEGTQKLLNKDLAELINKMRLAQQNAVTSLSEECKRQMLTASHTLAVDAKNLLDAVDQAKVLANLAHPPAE
LYN, sequence (P07948 whole entry): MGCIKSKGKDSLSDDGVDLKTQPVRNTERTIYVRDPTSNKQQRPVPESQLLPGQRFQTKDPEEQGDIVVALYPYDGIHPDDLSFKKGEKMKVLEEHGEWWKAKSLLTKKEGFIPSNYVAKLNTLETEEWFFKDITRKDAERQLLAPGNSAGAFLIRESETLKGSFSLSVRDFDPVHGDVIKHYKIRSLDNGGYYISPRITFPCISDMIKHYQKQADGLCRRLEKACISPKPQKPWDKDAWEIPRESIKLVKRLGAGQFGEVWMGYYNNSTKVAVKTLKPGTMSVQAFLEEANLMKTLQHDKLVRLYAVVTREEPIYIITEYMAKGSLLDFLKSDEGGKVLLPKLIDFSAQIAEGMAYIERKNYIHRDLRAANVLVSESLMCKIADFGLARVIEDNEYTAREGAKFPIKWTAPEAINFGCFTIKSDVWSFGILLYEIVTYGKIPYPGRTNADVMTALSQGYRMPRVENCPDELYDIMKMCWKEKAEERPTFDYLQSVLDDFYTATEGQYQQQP
AXL, sequence (P30530 26-894): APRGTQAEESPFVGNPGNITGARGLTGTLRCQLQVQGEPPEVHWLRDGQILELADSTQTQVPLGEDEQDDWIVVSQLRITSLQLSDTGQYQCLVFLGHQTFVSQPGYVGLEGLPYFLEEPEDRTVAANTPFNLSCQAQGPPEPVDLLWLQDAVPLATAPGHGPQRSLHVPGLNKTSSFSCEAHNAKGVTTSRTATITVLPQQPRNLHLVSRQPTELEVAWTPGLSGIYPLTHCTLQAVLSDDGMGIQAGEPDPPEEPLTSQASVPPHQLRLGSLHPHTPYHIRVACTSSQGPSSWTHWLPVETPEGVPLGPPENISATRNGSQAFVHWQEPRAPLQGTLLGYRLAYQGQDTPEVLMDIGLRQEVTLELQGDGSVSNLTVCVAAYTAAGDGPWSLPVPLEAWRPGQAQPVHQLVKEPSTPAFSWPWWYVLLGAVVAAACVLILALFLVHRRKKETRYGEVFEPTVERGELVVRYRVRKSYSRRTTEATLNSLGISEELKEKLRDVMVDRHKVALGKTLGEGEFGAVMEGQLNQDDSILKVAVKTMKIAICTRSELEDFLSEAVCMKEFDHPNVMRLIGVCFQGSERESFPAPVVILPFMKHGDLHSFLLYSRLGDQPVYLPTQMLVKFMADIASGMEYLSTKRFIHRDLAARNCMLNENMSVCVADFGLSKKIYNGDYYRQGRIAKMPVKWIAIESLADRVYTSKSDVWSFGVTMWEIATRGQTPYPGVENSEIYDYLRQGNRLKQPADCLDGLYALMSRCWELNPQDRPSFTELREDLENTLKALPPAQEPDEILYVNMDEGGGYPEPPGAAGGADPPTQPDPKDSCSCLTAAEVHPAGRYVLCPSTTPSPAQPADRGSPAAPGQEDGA
RIPK4, sequence (P57078 whole entry): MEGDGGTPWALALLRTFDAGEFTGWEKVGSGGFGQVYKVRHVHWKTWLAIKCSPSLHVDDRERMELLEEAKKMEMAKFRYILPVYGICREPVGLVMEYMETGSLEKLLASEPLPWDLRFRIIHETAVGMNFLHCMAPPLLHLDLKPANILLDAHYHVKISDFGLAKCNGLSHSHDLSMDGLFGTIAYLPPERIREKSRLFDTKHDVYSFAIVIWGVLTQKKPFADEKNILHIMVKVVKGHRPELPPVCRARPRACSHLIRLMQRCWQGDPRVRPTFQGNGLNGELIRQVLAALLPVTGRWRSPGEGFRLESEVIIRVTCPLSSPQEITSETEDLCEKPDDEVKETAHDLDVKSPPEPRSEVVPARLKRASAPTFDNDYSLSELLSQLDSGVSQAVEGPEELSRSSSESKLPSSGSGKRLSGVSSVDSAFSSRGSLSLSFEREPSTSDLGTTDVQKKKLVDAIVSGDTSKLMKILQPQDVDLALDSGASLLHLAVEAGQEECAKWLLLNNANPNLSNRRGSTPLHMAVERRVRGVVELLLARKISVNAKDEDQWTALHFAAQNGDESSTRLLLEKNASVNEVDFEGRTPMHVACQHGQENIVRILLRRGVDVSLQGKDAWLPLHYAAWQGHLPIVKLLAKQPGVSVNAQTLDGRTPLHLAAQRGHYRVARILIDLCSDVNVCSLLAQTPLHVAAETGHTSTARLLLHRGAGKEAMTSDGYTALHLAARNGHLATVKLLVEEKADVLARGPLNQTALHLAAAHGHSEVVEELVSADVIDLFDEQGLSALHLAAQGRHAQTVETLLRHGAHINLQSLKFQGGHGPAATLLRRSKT
MARK4, sequence (Q96L34 whole entry): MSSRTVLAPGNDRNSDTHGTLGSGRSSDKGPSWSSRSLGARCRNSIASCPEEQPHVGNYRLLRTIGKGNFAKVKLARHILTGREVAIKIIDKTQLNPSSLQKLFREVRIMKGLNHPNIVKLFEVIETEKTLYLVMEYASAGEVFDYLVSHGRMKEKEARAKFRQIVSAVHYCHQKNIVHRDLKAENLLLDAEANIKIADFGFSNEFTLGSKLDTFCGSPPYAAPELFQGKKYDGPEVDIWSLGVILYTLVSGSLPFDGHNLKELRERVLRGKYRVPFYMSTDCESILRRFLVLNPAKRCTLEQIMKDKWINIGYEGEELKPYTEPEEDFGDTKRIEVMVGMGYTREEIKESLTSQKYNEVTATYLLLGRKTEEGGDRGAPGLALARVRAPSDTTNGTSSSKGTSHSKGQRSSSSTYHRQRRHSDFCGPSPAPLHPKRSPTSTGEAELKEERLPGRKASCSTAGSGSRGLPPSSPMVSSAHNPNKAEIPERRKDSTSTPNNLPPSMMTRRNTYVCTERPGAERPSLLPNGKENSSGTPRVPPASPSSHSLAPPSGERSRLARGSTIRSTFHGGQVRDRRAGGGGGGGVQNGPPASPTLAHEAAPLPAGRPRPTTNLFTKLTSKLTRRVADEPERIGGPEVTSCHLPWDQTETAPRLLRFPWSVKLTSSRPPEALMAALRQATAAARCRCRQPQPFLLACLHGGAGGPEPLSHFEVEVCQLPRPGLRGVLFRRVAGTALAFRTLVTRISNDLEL
RSK2(Kin.Dom.2-C-terminal), sequence (P51812 398-740 limits assumed): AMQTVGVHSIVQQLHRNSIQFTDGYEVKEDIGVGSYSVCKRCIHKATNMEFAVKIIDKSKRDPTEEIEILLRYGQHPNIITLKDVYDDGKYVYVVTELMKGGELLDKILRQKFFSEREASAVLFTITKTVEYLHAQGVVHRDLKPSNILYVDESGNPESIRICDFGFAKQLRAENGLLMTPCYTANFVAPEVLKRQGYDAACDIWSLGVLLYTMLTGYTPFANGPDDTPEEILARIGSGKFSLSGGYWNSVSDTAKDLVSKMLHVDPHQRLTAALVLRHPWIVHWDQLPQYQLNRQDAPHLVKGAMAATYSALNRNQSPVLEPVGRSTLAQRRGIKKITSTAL
CDK4, sequence (P11802 whole entry): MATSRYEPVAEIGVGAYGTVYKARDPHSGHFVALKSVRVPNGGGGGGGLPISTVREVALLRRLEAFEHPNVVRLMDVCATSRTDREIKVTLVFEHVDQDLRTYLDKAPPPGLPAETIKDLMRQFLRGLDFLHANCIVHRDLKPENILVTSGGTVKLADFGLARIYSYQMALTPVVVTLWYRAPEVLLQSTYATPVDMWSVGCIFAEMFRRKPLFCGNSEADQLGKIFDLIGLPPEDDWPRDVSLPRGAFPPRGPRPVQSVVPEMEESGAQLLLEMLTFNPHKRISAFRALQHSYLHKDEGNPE

CC(C)COC(=O)c1[nH]c2ccc(F)cc2c1-c1cn(CC2CCN(CCNS(=O)(=O)c3ccc(CC(C)C)cc3)CC2)nn1 [AB668, isobutyl 5-fluoro-3-(1-((1-(2-((4-isobutylphenyl)sulfonamido)ethyl)piperidin-4-yl)methyl)-1H-1,2,3-triazol-4-yl)-1H-indole-2-carboxylate]
remaining activity at 2 µM (RIOK1): 80% | remaining activity at 2 µM (CDK4-cyclinD1): 84% | remaining activity at 2 µM (VPS34): 100% | remaining activity at 2 µM (SGK): 100% | remaining activity at 2 µM (AXL): 100% | remaining activity at 2 µM (GRK4): 98% | p21 phosphorylation (p21 (T145)): weakly affected | remaining activity at 2 µM (MEK4): 89% | remaining activity at 2 µM (SRC): 92% | cleavage of PARP (PARP): cleavage of PARP | remaining activity at 2 µM (RET(V804M)): 76% | remaining activity at 2 µM (ERBB2): 100% | remaining activity at 2 µM (MARK4): 87% | remaining activity at 2 µM (S6K1): 89% | remaining activity at 2 µM (RIPK4): 100% | remaining activity at 2 µM (BMPR2): 100% | remaining activity at 2 µM (PRKG1): 85% | remaining activity at 2 µM (ULK1): 77% | IC50 (CK2 in HEK293 cells): 0.6 ± 0.11 µM | remaining activity at 2 µM (TESK1): 95% | remaining activity at 2 µM (SGK2): 98% | remaining activity at 2 µM (MLK1): 96% | remaining activity at 2 µM (CHEK1): 95% | remaining activity at 2 µM (PLK1): 100% | activated forms of STAT3 (STAT3 (S727)): dose-dependent inhibition | remaining activity at 2 µM (GRK7): 97% | remaining activity at 2 µM (PIM2): 84% | remaining activity at 2 µM [1]: 79% | remaining activity at 2 µM (IRAK4): 92% | remaining activity at 2 µM (INSRR): 93% | remaining activity at 2 µM (MKK7): 82% | remaining activity at 2 µM (YANK2): 76% | remaining activity at 2 µM (ACVR2B): 92% | remaining activity at 2 µM (IRAK3): 86% | remaining activity at 2 µM (CDK4): 100% | remaining activity at 2 µM (PYK2): 95% | remaining activity at 2 µM (PCTK2): 96% | remaining activity at 2 µM (LYN): 88% | remaining activity at 2 µM (TYRO3): 100% | remaining activity at 2 µM (PRKCE): 98% | remaining activity at 2 µM [2]: 81% | remaining activity at 2 µM (PIK3C2B): 100% | remaining activity at 2 µM (AURKC): 100%
